# Measured values taken from patent US9034922B2, “Composition for maintaining function of platelets” (THE UNIVERSITY OF TOKYO, priority 2010, dated 2015).
# Tests used:
# [1] = target: T1, Matrix metalloproteinase 17 (MMP-17) (Homo sapiens, UniProt Q9ULZ9); experiment: Enzyme inhibition experiment, MMP-17; type: biochemical; details: 3163 substrate, 25° C., 5 hours
# T1 construct: purchased Calbiochem 475940
# T1 sequence (Q9ULZ9 126-298 limits assumed): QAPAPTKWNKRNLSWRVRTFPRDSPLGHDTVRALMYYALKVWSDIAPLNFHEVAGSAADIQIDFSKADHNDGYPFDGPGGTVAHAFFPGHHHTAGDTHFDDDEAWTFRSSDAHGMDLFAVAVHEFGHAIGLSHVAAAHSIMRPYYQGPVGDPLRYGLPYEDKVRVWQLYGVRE
# Procedure: Matrix metalloproteinase 17 (MMP-17) (manufactured by Calbiochem, product number: 475940)
# (§1) 3168 substrate (MOCAc-Arg-Pro-Lys-Pro-Val-Glu-Nva-Trp-Arg-Lys(Dnp)-NH2, manufactured by Peptide Institute, Inc.): excitation wavelength at 320 nm, emission wavelength at 405 nm, and 3163 substrate (MOCAc-Pro-Leu-Gly-Leu-A2pr(Dnp)-Ala-Arg-NH2, manufactured by Peptide Institute, Inc.): excitation wavelength at 320 nm, emission wavelength at 405 nm.
# (§2) The enzyme reaction was carried out using the enzymes and substrates. Specifically, if necessary, the enzyme was activated in advance with APMA (final concentration 1 mmol/L, p-aminophenylmercuric acetate, manufactured by Sigma-Aldrich Co., A9563) according to information from the manufacturer. Then, in a 96-well plate for fluorescence measurement, 90 μL of an enzyme solution prepared with Assay Buffer A (50 mmol/L Tris-HCl buffer (pH 7.5) containing 200 mmol/L sodium chloride, 5 mmol/L calcium chloride, 10 μmol/L zinc sulfate, and 2 mg/mL bovine serum albumin) was mixed with 90 μL of the substrate adjusted to be 20 μmol/L with Assay Buffer B (50 mmol/L Tris-HCl buffer (pH 7.5) containing 200 mmol/L sodium chloride, 5 mmol/L calcium chloride, 10 μmol/L zinc sulfate, and 0.05% PLURONIC F-68), and incubated for reaction at 25° C. or 37° C. for several hours. Moreover, the fluorescence intensities before and after the reaction were measured using a fluorometer to determine the enzyme activity. An inhibition rate was obtained based on the enzyme activities in the presence and absence of the test substances, and the 50% inhibitory concentration (IC50) was calculated.
# [2] = target: T2, Matrix metalloproteinase 3 (MMP-3) (Homo sapiens, UniProt P08254); experiment: Enzyme inhibition experiment, MMP-3; type: biochemical; details: 3168 substrate, 37° C., 4 hours
# T2 construct: purchased Calbiochem 444217
# T2 sequence (P08254 100-272 limits assumed): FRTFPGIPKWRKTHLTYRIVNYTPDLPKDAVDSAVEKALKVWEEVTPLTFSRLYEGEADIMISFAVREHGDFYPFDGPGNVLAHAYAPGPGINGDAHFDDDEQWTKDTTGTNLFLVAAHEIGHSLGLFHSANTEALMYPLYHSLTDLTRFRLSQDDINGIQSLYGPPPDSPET
# Procedure: Matrix metalloproteinase 3 (MMP-3) (manufactured by Calbiochem, product number: 444217)
# as §1, §2
# [3] = target: T3, Matrix metalloproteinase 14 (MMP-14) (Homo sapiens, UniProt P50281); experiment: Enzyme inhibition experiment, MMP-14; type: biochemical; details: 444221 substrate, 37° C., 5 hours
# T3 construct: purchased Calbiochem 475935
# Procedure: Matrix metalloproteinase 14 (MMP-14) (manufactured by Calbiochem, product number: 475935)
# 444221 substrate (DNP-Pro-Cha-Gly-Cys(Me)-His-Ala-Lys(Nma)-NH2, custom synthesis): excitation wavelength at 355 nm, emission wavelength at 460 nm
# as §2
# [4] = test system: ES cell-derived platelets (ADAM17-mediated GPIbα shedding); experiment: Function-maintaining effect on ES cell-derived platelets in culture system (flow cytometry CD41/CD42b, platelet count)
# Procedure: As human ES cells (hES cells), a KhES cell line (KhES-3) established by and provided from Institute for Frontier Medical Sciences, Kyoto University was used.
# The human ES cells or the human iPS cells were seeded on the feeder cells such that the cell count was 5×10^4 to 1×10^5/10-cm dish. The cells were cultured in Iscove's Modified Dulbecco's Medium (IMDM, manufactured by Invitrogen Corp/GIBCO) supplemented with 15% FBS (product name: CELLect™ GOLD, manufactured by ICN Biomedicals Inc.), 2 mM L-glut amine (manufactured by Invitrogen Corp.), ITS supplement (10 μg/ml insulin, 5.5 mg/ml human transferrin, 5 ng/ml sodium selenite) (manufactured by Sigma-Aldrich Co.), 50 μg/ml ascorbic acid (Sigma-Aldrich Co.), 0.45 mM α-monothioglycerol (MTG, manufactured by Sigma-Aldrich Co.), and 20 ng/ml vascular endothelial growth factor (VEGF, manufactured by R&D Systems, Inc.). Further, this culturing was carried out at 37° C. in 5% CO2 and 21% O2 (atmospheric oxygen) using a CO2 incubator (product name: HERA CELL 150i, manufactured by Thermo Fisher Scientific K. K.). Then, the medium was replaced every 3 days, and the culturing was continued under the conditions until Day 15 when a large number of sac structures (sac-like structures) containing hematopoietic progenitor cells therein were observed.
# Next, after detached from the dish, the sac structures were disrupted and suspended in a 3% FBS-containing phosphate buffer solution (PBS). Then, the suspension was passed through a 40-μm cell strainer (manufactured by BD). The solution thus passed through was centrifuged at 440×g for 10 minutes to collect hematopoietic progenitor cells, and the cells was counted. The hematopoietic progenitor cells were seeded on 10T1/2 cells newly prepared in a 6-well plate (6×10^5 cells/plate) exposed to 50-Gy radiation such that the number of the hematopoietic progenitor cells was 2 to 3×10^4/well. The hematopoietic progenitor cells were further cultured for 8 days in IMDM (manufactured by Invitrogen Corp/GIBCO) supplemented with 15% FBS (product name: CELLect™ GOLD, manufactured by ICN Biomedicals Inc.), 2 mM L-glutamine (manufactured by Invitrogen Corp.), ITS supplement (10 μg/ml insulin, 5.5 mg/ml transferrin, 5 ng/ml sodium selenite) (manufactured by Sigma-Aldrich Co.), 50 μg/ml ascorbic acid (manufactured by Sigma-Aldrich Co.), 0.45 mM MTG (manufactured by Sigma-Aldrich Co.), 100 ng/ml human thrombopoietin (human TPO, manufactured by PeproTech, Inc.), 50 ng/ml human stem cell factor (SCF, manufactured by PeproTech, Inc.), and 25 U/ml heparin. Thereby, megakaryocytes/platelets were induced.
# Subsequently, the induced megakaryocytes/platelets were collected with an anticoagulant solution (Acid Citrate Dextrose, ACD), followed by centrifugation at 900 rpm for 10 minutes without a break. The supernatant obtained by the centrifugation was further centrifuged at 1500 rpm for 10 minutes without a break to remove the supernatant. Thereafter, the numbers of megakaryocytes and platelets in the precipitate thus obtained were analyzed by flow cytometry using antibodies for staining.
# Note that, in the flow cytometry, FACS Aria manufactured by Becton, Dickinson and Company was used. As the antibodies used to stain the megakaryocytes and the platelets, used were a Phycoerythrin (PE)-modified anti-human CD42a (GPIX) antibody, a PE-modified anti-human CD42b (GPIbα) antibody, and an allophycocyanin (APC)-labelled anti-CD41a (integrin αIIbbeta3 complex, HIP8 clone) antibody (manufactured by BD Bioscience). Additionally, in order to accurately measure the absolute numbers of the megakaryocytes and the platelets, the cells were stained with these antibodies, and the analysis was conducted by flow cytometry using TruCount beads (manufactured by BD Bioscience), also.
# [5] = target: T4, Matrix metalloproteinase 13 (MMP-13) (Homo sapiens, UniProt P45452); experiment: Enzyme inhibition experiment, MMP-13; type: biochemical; details: 444221 substrate, 37° C., 4 hours
# T4 construct: purchased Chemicon CC068
# Procedure: Matrix metalloproteinase 13 (MMP-13) (manufactured by Chemicon, product number: CC068)
# as §2, with “activity.” for “activity. An inhibition rate was obtained based on the enzyme activities in the presence and absence of the test substances, and the 50% inhibitory concentration (IC50) was calculated.”
# [6] = target: T5, A disintegrin and metalloproteinase 10 (ADAM10) (Homo sapiens, UniProt O14672); experiment: Enzyme inhibition experiment, ADAM10; type: biochemical; details: TACE substrate, 25° C., 5 hours
# T5 construct: purchased Funakoshi Co., Ltd. 936-AD-020
# T5 sequence (O14672 214-672 limits assumed): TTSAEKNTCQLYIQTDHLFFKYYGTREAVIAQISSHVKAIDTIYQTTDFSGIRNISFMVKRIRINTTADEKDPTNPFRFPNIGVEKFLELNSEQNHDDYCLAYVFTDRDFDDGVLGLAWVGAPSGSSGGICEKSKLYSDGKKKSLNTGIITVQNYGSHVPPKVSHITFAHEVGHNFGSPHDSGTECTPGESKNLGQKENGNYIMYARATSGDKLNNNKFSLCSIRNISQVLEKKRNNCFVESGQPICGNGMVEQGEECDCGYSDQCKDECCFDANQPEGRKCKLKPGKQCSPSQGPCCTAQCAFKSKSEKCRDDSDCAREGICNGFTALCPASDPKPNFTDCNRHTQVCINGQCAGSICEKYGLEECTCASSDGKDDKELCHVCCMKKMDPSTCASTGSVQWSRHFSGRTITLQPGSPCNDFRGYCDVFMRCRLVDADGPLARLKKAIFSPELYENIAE
# Procedure: A disintegrin and metalloproteinase 10 (ADAM10) (manufactured by Funakoshi Co., Ltd., product code: 936-AD-020) and
# (§3) TACE substrate (the same as one used in Test Example 3): excitation wavelength at 355 nm, emission wavelength at 460 nm
# as §2
# ADAM17 = target: T6, ADAM17 (Homo sapiens, UniProt P78536); experiment: ADAM17 inhibition experiment (fluorescent synthetic substrate); type: biochemical
# T6 construct: made in house; host or cells: mammalian cells or insect cells
# T6 sequence (P78536 215-824): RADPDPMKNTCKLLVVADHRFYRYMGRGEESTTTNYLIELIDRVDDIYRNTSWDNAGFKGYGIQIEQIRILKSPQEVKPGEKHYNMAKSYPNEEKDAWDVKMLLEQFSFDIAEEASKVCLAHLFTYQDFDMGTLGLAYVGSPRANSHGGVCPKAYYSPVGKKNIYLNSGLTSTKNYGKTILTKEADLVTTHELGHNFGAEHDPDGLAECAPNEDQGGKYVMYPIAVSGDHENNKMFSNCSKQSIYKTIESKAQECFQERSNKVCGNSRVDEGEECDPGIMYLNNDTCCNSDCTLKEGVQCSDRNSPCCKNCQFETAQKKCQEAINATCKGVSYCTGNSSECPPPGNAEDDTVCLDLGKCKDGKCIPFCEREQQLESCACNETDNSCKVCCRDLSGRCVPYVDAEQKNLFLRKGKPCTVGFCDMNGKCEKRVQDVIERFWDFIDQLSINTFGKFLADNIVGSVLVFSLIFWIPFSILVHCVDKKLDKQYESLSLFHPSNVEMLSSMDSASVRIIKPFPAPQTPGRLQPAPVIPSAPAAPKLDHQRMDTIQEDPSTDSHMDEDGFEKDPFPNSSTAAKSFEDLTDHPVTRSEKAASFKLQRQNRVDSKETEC
# Procedure: The cDNA was incorporated into an expression vector. Then, this vector was transfected into mammalian cells or insect cells, and ADAM17 was expressed and obtained.
# Next, the activity of ADAM17 was measured, as follows in the presence or absence of the test substances, in which obtained ADAM17 was used as an enzyme, and a fluorescent synthetic substrate Nma (N-methyl anthranilate)-[…]Dnp (dinitrophenyl)-D-Arg-NH2 containing an ADAM17-cleavage sequence of membrane-bound TNF was used as a substrate.
# Specifically, 90 μL of 14 units of an enzyme solution (1 unit is defined as an amount of enzyme degrading […] of the substrate in 1 minute at 25° C.) prepared with Assay Buffer A (50 mmol/L Tris-HCl buffer (pH 7.5) containing 200 mmol/L sodium chloride, 5 mmol/L calcium chloride, 10 μmol/L zinc sulfate, and 2 mg/mL bovine serum albumin) was mixed with 90 μL of the fluorescent synthetic substrate adjusted to be 20 μmol/L with Assay Buffer B (50 mmol/L Tris-HCl buffer (pH 7.5) containing 200 mmol/L sodium chloride, 5 mmol/L calcium chloride, 10 μmol/L zinc sulfate, and 0.05% PLURONIC F-68), and allowed for reaction at 37° C. for 1.5 hours. Thereafter, the enzyme activity was determined by measurement using a fluorometer (Fluoroskan Ascent) under conditions of an excitation wavelength of 355 nm and a measurement wavelength of 460 nm. Then, an inhibition rate was obtained based on the enzyme activities in the presence and absence of the test compounds, and the 50% inhibitory concentration (IC50) was calculated.
# A disintegrin and metalloproteinase 17 (ADAM17, TACE) (used was one prepared at Kaken Pharmaceutical Co., Ltd. by employing the genetic recombination in the same way as in Test Example 3. Note that, the same as in Test Example 3, 1 unit is defined as an amount of enzyme degrading 1 pmol of substrate in 1 minute at 25° C.)
# as §3, §2
structure (smiles),measurement,setting,value
"CNC(=O)[C@H](Cc1c[nH]c2ccccc12)NC(=O)[C@@H](CC(=O)NO)CC(C)C [GM6001, reference compound]",IC50,[1],3 nM
same,IC50,[2],32 nM
same,IC50,[3],1.6 nM
same,cytotoxicity,"[4]; Test Example 5, 50 μM, 8-day addition",had cytotoxicity
same,number of platelets obtained,"[4]; Test Example 5, 8-day addition, 50 μM GM6001 vs 5 μM S-45282",fewer platelets than 5 μM S-45282
same,inhibition of ADAM17-mediated GPIbα shedding (CD42b(+) percentage),"[4]; Test Example 5, added for 2 days or 8 days, GM6001 50 μM, S-45282 5 μM or 50 μM",inhibit ADAM17-mediated GPIbα shedding
same,number of platelets obtained,"[4]; Test Example 5, added for 2 days, 50 μM GM6001, 5 μM S-45282",approximately the same
same,inhibition of ADAM17-mediated GPIbα shedding,"[4]; Test Example 6, 8 days, S-45457 5 μM or 50 μM, GM6001 50 μM",inhibits ADAM17-mediated GPIbα shedding
same,IC50,[5],0.26 nM
same,IC50 ADAM10,[6],410 nM
same,IC50,ADAM17,310 nM
same,inhibitory activity on ADAM17 enzyme (in words),ADAM17,weak
same,specificity to ADAM17 in comparison with metalloproteinases other than ADAM17,ADAM17; from Table 3,non-specifically and strongly inhibited metalloproteinases
